Data as given in ChEMBL document CHEMBL5329151, “Novel pirfenidone derivatives: synthesis and biological evaluation” (2023).
Activity calls are given as the source filed them. No cut-off for these calls is given here.

What was measured:
[1] = tested on: 3T3-L1; assay: Inhibition of cell growth in mouse 3T3-L1 cells at 0.5 to 2 mmol/L by MTT assay; type: functional, cell-based; conditions: dose 0.5-2 mmol/L, time 24-48 hrs, TDE = time-dependent effect
[2] = tested on: 3T3-L1; assay: Inhibition of fibronectin secretion in mouse 3T3-L1 cells assessed as reduction in accumulation of fibronectin in extracellular matrix incubated for 48 hrs by ELISA (reference value: 1389.10 +/- 9.19 ng/ml); type: functional, cell-based; conditions: dose 0.5-2 mmol/L
[3] = tested on: 3T3-L1; assay: Inhibition of cell growth in mouse 3T3-L1 cells after 24 to 48 hrs by MTT assay; type: functional, cell-based; conditions: time 24-48 hrs
[4] = tested on: 3T3-L1; assay: Inhibition of cell growth in mouse 3T3-L1 cells at […] after 24 to 48 hrs by MTT assay; type: functional; conditions: dose 2 mmol/L, time 24-48 hrs

Row | Compound | inhibition [1] | inhibition [2] | inhibition [3] | inhibition at 2000 µM [4] [%]
1 | NC(=O)N/N=C\c1ccc(-n2ccccc2=O)cc1 | Tde | Active | Dose-Dependent Effect | 
2 | Cc1ccc(=O)n(-c2ccccc2)c1 |  |  | Dose-Dependent Effect | 
3 | NC(=S)N/N=C\c1ccc(-n2ccccc2=O)cc1 | Tde | Active | Dose-Dependent Effect | 
4 | N/N=C/c1ccc(-n2ccccc2=O)cc1 | Tde | Active | Dose-Dependent Effect | 
5 | O=c1ccccn1-c1ccc(C2=NC3CCCCC3N2)cc1 (stereo not drawn) | Tde | Active | Dose-Dependent Effect | 95.4
6 | O=c1ccccn1-c1ccc(C2=NCCN2)cc1 | Tde | Active | Dose-Dependent Effect | 
7 | O=c1ccccn1-c1ccc(/C=N\Nc2ccccc2)cc1 | Tde | Active | Dose-Dependent Effect | 
8 | O=c1ccccn1-c1ccc(C2=NCCCN2)cc1 | Tde | Active | Dose-Dependent Effect | 
